{"source": "ChEMBL document CHEMBL5465560", "about": "“Selectivity Literature for EUbOPEN Chemogenomic Library” (2024)", "key": {"[1]": {"target": "Insulin-like growth factor 1 receptor (Homo sapiens, UniProt P08069)", "sequence (P08069 31-736 limits assumed)": "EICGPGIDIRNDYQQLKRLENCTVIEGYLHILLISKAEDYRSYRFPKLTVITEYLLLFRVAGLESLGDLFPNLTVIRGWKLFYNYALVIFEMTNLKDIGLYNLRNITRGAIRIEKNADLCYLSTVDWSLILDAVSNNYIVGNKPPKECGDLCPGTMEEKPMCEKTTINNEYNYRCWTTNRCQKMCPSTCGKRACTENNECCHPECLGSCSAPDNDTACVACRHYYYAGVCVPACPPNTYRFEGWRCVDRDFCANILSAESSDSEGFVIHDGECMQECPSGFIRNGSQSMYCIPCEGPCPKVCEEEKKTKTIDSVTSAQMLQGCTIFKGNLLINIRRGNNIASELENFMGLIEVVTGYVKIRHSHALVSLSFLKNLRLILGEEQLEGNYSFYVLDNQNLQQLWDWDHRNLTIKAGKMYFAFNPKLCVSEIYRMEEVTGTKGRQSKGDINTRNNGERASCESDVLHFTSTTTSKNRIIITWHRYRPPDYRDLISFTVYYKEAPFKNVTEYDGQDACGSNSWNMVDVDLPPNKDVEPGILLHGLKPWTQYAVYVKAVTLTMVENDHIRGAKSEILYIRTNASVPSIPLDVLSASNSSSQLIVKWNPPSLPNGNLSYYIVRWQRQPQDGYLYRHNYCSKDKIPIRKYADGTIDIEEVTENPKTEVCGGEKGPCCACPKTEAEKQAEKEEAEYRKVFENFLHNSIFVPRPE", "sequence (P08069 741-1367 limits assumed)": "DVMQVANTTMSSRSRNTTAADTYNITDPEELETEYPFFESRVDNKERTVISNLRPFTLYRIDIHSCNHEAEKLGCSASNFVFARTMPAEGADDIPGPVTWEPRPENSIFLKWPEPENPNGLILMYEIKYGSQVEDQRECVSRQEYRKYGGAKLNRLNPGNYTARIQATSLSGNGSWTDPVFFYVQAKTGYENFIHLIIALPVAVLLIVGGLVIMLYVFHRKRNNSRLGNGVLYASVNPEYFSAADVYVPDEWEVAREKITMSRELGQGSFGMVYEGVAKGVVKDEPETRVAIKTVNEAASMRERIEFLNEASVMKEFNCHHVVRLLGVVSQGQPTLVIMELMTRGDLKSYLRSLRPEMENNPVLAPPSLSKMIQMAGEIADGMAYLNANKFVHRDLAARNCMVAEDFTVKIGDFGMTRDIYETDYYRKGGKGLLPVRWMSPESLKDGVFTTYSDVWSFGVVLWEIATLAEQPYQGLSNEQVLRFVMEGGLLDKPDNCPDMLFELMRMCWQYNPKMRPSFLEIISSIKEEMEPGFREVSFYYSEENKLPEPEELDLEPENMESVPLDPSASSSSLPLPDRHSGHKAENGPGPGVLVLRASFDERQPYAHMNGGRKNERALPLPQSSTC", "assay": "Selectivity interaction (Upstate Kinase Profiler service (Millipore)) EUB0000056c IGF1R", "conditions": "at 1 µM"}, "[2]": {"target": "T1, Mitogen-activated protein kinase kinase kinase 5 (Homo sapiens) (UniProt Q99683)", "T1 sequence (whole entry)": "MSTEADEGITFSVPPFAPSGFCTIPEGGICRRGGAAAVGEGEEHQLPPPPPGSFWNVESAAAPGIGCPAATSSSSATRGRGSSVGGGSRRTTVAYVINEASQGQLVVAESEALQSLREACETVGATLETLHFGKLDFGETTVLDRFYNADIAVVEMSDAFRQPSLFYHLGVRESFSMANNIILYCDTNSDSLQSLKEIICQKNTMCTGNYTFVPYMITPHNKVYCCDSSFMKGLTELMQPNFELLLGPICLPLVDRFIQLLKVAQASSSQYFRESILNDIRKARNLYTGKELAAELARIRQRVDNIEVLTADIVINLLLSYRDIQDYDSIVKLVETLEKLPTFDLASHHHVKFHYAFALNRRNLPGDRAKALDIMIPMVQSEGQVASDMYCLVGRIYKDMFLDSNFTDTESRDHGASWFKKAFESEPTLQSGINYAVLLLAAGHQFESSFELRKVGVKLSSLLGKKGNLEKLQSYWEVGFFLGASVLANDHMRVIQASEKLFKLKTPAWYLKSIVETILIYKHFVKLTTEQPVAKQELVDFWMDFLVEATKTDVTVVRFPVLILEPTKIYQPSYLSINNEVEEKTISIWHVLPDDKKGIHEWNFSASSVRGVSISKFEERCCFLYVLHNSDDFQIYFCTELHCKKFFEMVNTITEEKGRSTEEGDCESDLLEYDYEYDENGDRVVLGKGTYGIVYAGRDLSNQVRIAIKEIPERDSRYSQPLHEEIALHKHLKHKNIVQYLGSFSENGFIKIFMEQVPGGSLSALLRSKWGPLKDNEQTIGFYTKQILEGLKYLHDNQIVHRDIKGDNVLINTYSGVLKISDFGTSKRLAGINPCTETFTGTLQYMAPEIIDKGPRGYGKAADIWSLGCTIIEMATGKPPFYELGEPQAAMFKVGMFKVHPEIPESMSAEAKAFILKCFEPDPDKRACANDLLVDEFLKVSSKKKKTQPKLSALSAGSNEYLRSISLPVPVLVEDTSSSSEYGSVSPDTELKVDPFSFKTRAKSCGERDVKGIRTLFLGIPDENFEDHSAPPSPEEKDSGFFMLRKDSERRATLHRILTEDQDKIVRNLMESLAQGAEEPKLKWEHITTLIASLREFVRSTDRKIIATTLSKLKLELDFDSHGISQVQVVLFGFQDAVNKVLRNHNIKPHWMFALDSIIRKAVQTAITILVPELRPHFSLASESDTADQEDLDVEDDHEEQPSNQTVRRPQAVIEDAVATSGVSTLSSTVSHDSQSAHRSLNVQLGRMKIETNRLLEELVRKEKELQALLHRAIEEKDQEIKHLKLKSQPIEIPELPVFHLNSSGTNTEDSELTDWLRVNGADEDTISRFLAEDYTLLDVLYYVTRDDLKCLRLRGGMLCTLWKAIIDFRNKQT", "assay": "Selectivity interaction (ActivX KiNativ screen (kinase selectivity in THP-1 cell lysates)) EUB0000639a MAP3K5", "type": "subcellular", "conditions": "lysate"}, "[3]": {"target": "Proto-oncogene tyrosine-protein kinase ROS (Homo sapiens) (UniProt P08922)", "sequence (P08922 whole entry)": "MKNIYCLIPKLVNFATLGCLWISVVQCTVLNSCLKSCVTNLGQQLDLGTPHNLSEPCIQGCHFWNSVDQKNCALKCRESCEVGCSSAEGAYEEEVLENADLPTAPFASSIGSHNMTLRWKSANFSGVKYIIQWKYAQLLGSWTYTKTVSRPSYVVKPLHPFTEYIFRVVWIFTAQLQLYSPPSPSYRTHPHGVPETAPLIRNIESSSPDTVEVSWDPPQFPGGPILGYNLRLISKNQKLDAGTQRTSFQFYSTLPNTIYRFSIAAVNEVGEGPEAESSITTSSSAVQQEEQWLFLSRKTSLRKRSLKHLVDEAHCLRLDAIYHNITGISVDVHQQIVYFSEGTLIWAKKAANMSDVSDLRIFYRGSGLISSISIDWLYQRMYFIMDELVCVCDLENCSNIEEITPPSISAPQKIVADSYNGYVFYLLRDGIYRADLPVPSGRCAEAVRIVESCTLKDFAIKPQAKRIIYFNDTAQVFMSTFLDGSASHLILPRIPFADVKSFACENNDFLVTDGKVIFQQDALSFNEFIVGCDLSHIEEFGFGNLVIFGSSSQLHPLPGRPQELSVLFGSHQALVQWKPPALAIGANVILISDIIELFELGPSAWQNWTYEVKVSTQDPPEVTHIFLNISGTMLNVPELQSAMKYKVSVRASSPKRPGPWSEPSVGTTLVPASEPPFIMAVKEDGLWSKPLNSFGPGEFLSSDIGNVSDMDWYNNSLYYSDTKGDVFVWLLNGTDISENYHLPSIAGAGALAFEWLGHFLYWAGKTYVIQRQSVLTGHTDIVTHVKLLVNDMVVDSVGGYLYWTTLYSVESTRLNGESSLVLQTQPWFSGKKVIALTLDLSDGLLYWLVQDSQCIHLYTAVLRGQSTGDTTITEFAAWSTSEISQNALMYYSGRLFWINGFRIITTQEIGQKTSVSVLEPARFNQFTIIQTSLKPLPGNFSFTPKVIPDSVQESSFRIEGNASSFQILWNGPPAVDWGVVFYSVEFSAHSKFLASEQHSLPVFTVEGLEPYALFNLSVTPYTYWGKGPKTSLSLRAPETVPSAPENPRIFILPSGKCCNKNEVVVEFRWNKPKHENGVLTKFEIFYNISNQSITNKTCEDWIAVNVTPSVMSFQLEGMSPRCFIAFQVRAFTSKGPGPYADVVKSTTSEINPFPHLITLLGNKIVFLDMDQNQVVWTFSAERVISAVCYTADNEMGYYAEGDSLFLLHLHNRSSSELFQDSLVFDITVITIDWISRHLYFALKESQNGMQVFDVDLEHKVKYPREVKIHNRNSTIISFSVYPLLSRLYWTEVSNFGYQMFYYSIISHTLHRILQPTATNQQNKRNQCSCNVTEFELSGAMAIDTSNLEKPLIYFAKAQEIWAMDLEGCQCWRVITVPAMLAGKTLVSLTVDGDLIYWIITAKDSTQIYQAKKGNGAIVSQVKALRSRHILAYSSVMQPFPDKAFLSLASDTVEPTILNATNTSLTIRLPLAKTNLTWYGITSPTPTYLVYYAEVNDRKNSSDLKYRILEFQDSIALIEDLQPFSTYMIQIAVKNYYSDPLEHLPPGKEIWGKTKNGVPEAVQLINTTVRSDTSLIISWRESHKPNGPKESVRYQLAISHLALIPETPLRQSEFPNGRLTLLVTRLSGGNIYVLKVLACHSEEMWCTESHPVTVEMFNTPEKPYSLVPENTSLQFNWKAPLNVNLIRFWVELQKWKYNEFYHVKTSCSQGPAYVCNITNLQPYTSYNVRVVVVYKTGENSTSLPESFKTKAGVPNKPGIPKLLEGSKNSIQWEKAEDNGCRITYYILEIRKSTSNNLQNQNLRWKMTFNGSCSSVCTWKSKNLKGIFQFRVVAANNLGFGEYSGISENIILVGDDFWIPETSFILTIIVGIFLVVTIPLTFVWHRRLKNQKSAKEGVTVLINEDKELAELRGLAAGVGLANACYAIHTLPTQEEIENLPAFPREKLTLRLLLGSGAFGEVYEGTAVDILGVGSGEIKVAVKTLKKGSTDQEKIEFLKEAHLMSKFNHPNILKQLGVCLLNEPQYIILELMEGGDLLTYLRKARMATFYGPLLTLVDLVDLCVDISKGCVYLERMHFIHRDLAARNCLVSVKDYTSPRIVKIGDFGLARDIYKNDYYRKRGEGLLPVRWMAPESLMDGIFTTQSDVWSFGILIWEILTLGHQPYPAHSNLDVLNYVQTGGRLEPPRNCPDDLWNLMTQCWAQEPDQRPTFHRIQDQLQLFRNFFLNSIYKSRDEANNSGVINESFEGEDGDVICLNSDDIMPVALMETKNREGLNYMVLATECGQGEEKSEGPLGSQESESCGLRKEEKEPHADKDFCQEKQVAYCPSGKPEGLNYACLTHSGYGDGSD", "assay": "Selectivity interaction (KinomeScan (DiscoverX)) EUB0001049a ROS1", "conditions": "at 1 µM"}, "[4]": {"target": "Mast/stem cell growth factor receptor Kit (Homo sapiens, UniProt P10721)", "assay": "Selectivity interaction (KinomeScan (DiscoverX)) EUB0000229b KIT", "conditions": "at 10 µM"}, "[5]": {"target": "Tyrosine-protein kinase SYK (Homo sapiens, UniProt P43405)", "conditions": "at 10 µM"}, "[6]": {"target": "Bromodomain-containing protein 4 (Homo sapiens, UniProt O60885)", "conditions": "at 10 µM"}, "[7]": {"target": "Tyrosine-protein kinase Fes/Fps (Homo sapiens) (UniProt P07332)", "sequence (P07332 whole entry)": "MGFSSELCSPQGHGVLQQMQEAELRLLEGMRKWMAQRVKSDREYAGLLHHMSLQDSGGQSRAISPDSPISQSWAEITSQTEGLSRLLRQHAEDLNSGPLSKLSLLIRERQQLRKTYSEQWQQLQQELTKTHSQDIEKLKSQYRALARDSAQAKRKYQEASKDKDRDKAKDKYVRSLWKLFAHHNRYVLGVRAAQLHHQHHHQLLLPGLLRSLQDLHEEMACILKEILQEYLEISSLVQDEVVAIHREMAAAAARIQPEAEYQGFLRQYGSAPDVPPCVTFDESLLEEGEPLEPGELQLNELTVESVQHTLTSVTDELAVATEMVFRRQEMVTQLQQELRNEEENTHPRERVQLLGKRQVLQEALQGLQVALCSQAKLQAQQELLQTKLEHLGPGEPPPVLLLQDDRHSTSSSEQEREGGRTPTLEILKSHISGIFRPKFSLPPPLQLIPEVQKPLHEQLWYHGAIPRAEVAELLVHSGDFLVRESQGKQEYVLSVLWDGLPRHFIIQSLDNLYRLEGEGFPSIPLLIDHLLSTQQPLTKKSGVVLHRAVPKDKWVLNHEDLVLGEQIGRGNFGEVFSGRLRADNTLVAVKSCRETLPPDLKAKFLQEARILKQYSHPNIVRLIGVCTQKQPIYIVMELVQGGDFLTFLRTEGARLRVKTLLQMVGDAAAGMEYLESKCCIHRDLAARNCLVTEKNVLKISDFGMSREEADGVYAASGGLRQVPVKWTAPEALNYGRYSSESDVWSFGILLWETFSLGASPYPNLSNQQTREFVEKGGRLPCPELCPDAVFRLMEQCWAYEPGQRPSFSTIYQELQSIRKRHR", "assay": "Selectivity interaction (KinomeScan (DiscoverX)) EUB0000618a FES", "conditions": "at 10 µM"}, "[8]": {"target": "T2, Serine/threonine-protein kinase TAO1 (Homo sapiens) (UniProt Q7L7X3)", "T2 sequence (whole entry)": "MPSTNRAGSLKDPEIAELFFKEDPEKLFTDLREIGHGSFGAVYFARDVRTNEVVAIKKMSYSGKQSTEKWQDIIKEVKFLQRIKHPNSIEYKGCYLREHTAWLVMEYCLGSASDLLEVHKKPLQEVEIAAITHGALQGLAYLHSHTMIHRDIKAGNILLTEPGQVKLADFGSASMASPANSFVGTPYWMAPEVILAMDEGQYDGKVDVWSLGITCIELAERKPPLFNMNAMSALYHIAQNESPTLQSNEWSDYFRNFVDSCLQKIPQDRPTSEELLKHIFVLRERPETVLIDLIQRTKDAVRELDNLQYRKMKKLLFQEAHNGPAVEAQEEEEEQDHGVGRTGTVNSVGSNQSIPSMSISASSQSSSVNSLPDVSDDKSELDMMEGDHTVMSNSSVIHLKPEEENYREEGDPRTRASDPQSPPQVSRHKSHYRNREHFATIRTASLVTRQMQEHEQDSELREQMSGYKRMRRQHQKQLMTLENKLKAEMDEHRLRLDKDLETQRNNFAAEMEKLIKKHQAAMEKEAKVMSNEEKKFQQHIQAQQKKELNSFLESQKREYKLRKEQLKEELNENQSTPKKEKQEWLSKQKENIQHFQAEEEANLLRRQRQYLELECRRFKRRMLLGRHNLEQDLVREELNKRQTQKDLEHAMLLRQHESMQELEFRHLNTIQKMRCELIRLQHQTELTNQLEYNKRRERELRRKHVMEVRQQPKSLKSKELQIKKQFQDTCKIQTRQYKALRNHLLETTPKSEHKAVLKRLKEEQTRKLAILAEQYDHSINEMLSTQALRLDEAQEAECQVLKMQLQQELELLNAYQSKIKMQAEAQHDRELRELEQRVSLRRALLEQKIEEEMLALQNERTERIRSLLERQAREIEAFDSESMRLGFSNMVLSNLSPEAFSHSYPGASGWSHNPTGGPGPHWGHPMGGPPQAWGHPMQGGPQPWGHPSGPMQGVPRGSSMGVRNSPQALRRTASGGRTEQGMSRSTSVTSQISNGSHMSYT", "assay": "Selectivity interaction (ActivX KiNativ screen (ex vivo kinase selectivity in human PBMCs)) EUB0001619a TAOK1", "type": "cell-based", "conditions": "PBMC, at 1 µM"}}}
{"compound": "Cc1ccc(-c2ccc3c(ccc4sc5c(c43)NC[C@@H](C)NC5=O)n2)cn1", "values": [{"measurement": "% of inhibition", "setting": "[1]", "result": 0, "unit": "%"}]}
{"compound": "CC[C@@H]1[C@H](F)C(=O)N[C@@H]1COc1nccc2cc(C(N)=O)c(OC)cc12", "note": "[ZIMLOVISERTIB]", "values": [{"measurement": "% of inhibition", "setting": "[2]; at 0.01 µM", "result": -12.1, "unit": "%"}, {"measurement": "% of inhibition", "setting": "[2]; at 0.04 µM", "result": -3.2, "unit": "%"}, {"measurement": "% of inhibition", "setting": "[2]; at 0.2 µM", "result": 0, "unit": "%"}, {"measurement": "% of inhibition", "setting": "[2]; at 1 µM", "result": -6.5, "unit": "%"}, {"measurement": "% of inhibition", "setting": "[2]; at 5 µM", "result": -21.9, "unit": "%"}]}
{"compound": "COc1cc(Nc2nc(C)cc(-c3cnn4nc(OC)ccc34)n2)cc(C(F)(F)F)c1", "values": [{"measurement": "% of control", "setting": "[3]", "result": 91, "unit": "%"}]}
{"compound": "COc1cc(N(C)c2ccnc3ccc(C(F)(F)F)cc23)cc(OC)c1OC", "values": [{"measurement": "% binding", "setting": "[4]", "result": 99, "unit": "%"}]}
{"compound": "Cc1cc([C@@H](C)Nc2ccccc2C(=O)O)c2nc(N3CCOCC3)cc(=O)n2c1", "note": "[AZD-6482]", "values": [{"measurement": "% of control", "setting": "[5]", "result": 100, "unit": "%"}, {"measurement": "% of control", "setting": "[6]", "result": 82, "unit": "%"}]}
{"compound": "O[C@H]1CC[C@H](Nc2ncc3nc(Nc4c(F)cc(F)cc4F)n([C@H]4CCOC4)c3n2)CC1", "values": [{"measurement": "% of control", "setting": "[7]", "result": 100, "unit": "%"}]}
{"compound": "N#Cc1cccc(-c2c[nH]c3ncnc(N4CCOCC4)c23)c1", "values": [{"measurement": "% of inhibition", "setting": "[8]", "result": 6, "unit": "%"}]}
